Measured values: US5663197A, “2-(1-hydroxyethyl)-5-hydroxynaphtho[2,3-b]furan-4,9-dione and antitumor agents comprising this compound” (priority 1992, dated 1997)
≈ marks a conversion by molar mass, not a printed value.

What was measured:
[1] = system: Human lung adenocarcinoma VMRC-LCD cells; assay: In vitro antitumor test (trypan blue exclusion viable cell count), VMRC-LCD; assay type: cell-based; settings: 72 h, three days exposure, read-out: LD50 (IC50), 50% growth-inhibitory dose
Procedure: (§1) An appropriate amount of NFD was dissolved in DMSO to give a 1.0 mg/ml stock solution, which was diluted as necessary before use.
(§2) The following cells in the late logarithmic phase were harvested after treatment with trypsin (containing 0.25% trypsin and 0.02% EDTA; 37° C., 3 min) and used in the test: human lung adenocarcinoma cell lines A-549, VMRC-LCD and SK-LU-1, human lung squamous cell carcinoma Calu-1 cells, human colon adenocarcinoma WiDr cells, human prostate cancer LNCaP cells, human vaginal squamous cell carcinoma A-431 cells, human cervical carcinoma HeLa cells, human cholangiocarcinoma HuCC-T1 cells, mouse skin cancer melanoma B16 (M4) cells, human pancreatic carcinoma ASPC-1 cells, human neuroblastoma IMR-132 cells, human lung small cell carcinoma SCCH-194 cells, human uninary bladder carcinoma T24 cells, human renal cell carcinoma […] cells, human gastric cancer NUGC-2 cells, human thyroid carcinoma 8305C cells, human hepatoma HUH-7 cells, human ovarian carcinoma TYK-nu cells and human chorio carcinoma BeWo cells. […] These cells were plated onto a 96-well microplate at a density of 5-10×10^3 cells/cm^2 using DMEM or RPMI-1640 medium containing 10% fetal bovine serum and cultured for 24 hours in a conventional manner, after which a pre-determined amount of NFD dissolved in DMSO was added to each well. […]

[2] = system: Human lung adenocarcinoma A-549 cells; assay: In vitro antitumor test (trypan blue exclusion viable cell count), A-549; assay type: cell-based; settings: A549, 72 h, three days exposure, read-out: LD50 (IC50), 50% growth-inhibitory dose
Procedure: as §1, §2

[3] = system: Human vaginal squamous cell carcinoma A-431 cells; assay: In vitro antitumor test (trypan blue exclusion viable cell count), A-431; assay type: cell-based
Procedure: as §1, §2

[4] = system: Human thyroid carcinoma 8305C cells; assay: In vitro antitumor test (trypan blue exclusion viable cell count), 8305C; assay type: cell-based
Procedure: as §1, §2

human lung cancer cells = assay: In vitro antitumor test, human lung cancer cells (FIGS. 1-4); assay type: cell-based
Procedure: as §1, §2

[5] = system: Human chorio carcinoma BeWo cells; assay: In vitro antitumor test (trypan blue exclusion viable cell count), BeWo; assay type: cell-based
Procedure: as §1, §2

Solubility = assay type: physicochemical
[6] = 72 h, three days exposure, read-out: LD50 (IC50), 50% growth-inhibitory dose

`CC(O)c1cc2c(o1)C(=O)c1cccc(O)c1C2=O` (stereo not shown) [NFD, 2-(1-hydroxyethyl)-5-hydroxynaphtho[2,3-b]furan-4,9-dione] showed an IC50 [1] of 0.013 µg/mL (≈ 0.0503 µM), an IC50 [2] of 0.0095 µg/mL (≈ 0.0368 µM) and an IC50 [3, 6] of 0.021 µg/mL (≈ 0.0813 µM). It also gave an IC (almost complete) ([3]; FIG. 7, read-out: concentration inhibiting growth almost completely) of 0.0279 µg/mL, an IC50 [4, 6] of 0.025 µg/mL (≈ 0.0968 µM) and an IC (almost complete) ([4]; FIG. 19, read-out: concentration inhibiting growth almost completely) of 0.028 µg/mL. The “concentration causing necrosis in almost all tumor cells” value (human lung cancer cells) was 33.5 to 55.4 ng/mL, the IC (almost complete) (human lung cancer cells; Homo sapiens, read-out: concentration inhibiting growth almost completely) was 0.0112 to 0.0168 µg/mL and the IC50 [5, 6] was 0.018 µg/mL (≈ 0.0697 µM). The IC (almost complete) ([5]; FIG. 23, read-out: concentration inhibiting growth almost completely) was 0.0343 µg/mL, the solubility in chloroform (Solubility; chloroform) was “freely soluble” and the solubility in dimethylsulfoxide (Solubility; dimethylsulfoxide) was “freely soluble”. For the same compound, the solubility in water (Solubility; water) was “slightly soluble”.
